Measurements as given in PubChem BioAssay (NCI).
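GI50 is the concentration that inhibits growth by half. Definition used: TGI = concentration required for complete inhibition of growth.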

Columns and labels:
Test in all cases: NCI-60 cell line screen, 384-well format
UACC-257 melanoma = tested on: UACC-257 melanoma
CAKI-1 renal = tested on: CAKI-1 renal
KM12 colon = tested on: KM12 colon
ACHN renal = tested on: ACHN renal
PC-3 prostate = tested on: PC-3 prostate
UO-31 renal = tested on: UO-31 renal
BT-549 breast = tested on: BT-549 breast
HOP-92 NSCLC = tested on: HOP-92 NSCLC
HOP-62 NSCLC = tested on: HOP-62 NSCLC
OVCAR-5 ovarian = tested on: OVCAR-5 ovarian
MCF7 breast = tested on: MCF7 breast
SN12C renal = tested on: SN12C renal
SF-268 CNS = tested on: SF-268 CNS
IGROV1 ovarian = tested on: IGROV1 ovarian
TK-10 renal = tested on: TK-10 renal
MALME-3M melanoma = tested on: MALME-3M melanoma
HCT-15 colon = tested on: HCT-15 colon
SF-295 CNS = tested on: SF-295 CNS
SNB-19 CNS = tested on: SNB-19 CNS
U251 glioblastoma = tested on: U251 glioblastoma
HS 578T breast = tested on: HS 578T breast
MDA-MB-468 breast = tested on: MDA-MB-468 breast
SK-MEL-5 melanoma = tested on: SK-MEL-5 melanoma
SF-539 CNS = tested on: SF-539 CNS
RPMI-8226 leukemia = tested on: RPMI-8226 leukemia
HT29 colon = tested on: HT29 colon
NCI/ADR-RES ovarian = tested on: NCI/ADR-RES ovarian
SK-OV-3 ovarian = tested on: SK-OV-3 ovarian
NCI-H226 lung = tested on: NCI-H226 lung

NC(=O)c1ccc2nc(-c3ccc(Oc4ccc(Cl)cc4)cc3)[nH]c2c1
GI50 (UACC-257 melanoma): 16.2 µM | TGI (UACC-257 melanoma): 35.1 µM | GI50 (CAKI-1 renal): 25.1 µM | TGI (CAKI-1 renal): > 100 µM | GI50 (KM12 colon): 14.5 µM | TGI (KM12 colon): 31.3 µM | GI50 (ACHN renal): 17.4 µM | TGI (ACHN renal): 45.1 µM | GI50 (PC-3 prostate): 16 µM | TGI (PC-3 prostate): 34.6 µM | GI50 (UO-31 renal): 16.9 µM | TGI (UO-31 renal): 44.5 µM | GI50 (BT-549 breast): 13.6 µM | TGI (BT-549 breast): 30.7 µM | GI50 (HOP-92 NSCLC): 20 µM | TGI (HOP-92 NSCLC): 80.3 µM | GI50 (HOP-62 NSCLC): 13.6 µM | TGI (HOP-62 NSCLC): 33.9 µM | GI50 (OVCAR-5 ovarian): 23.6 µM | TGI (OVCAR-5 ovarian): > 100 µM | GI50 (MCF7 breast): 12.1 µM | TGI (MCF7 breast): 27.1 µM | GI50 (SN12C renal): 17.4 µM | TGI (SN12C renal): 45.8 µM | GI50 (SF-268 CNS): 15.9 µM | TGI (SF-268 CNS): 56.2 µM | GI50 (IGROV1 ovarian): 17.1 µM | TGI (IGROV1 ovarian): 53.2 µM | GI50 (TK-10 renal): 23.3 µM | TGI (TK-10 renal): > 100 µM | GI50 (MALME-3M melanoma): 17.1 µM | TGI (MALME-3M melanoma): 46.2 µM | GI50 (HCT-15 colon): 16.9 µM | TGI (HCT-15 colon): 34.4 µM | GI50 (SF-295 CNS): 13.5 µM | TGI (SF-295 CNS): 30.8 µM | GI50 (SNB-19 CNS): 14.9 µM | TGI (SNB-19 CNS): 35.4 µM | GI50 (U251 glioblastoma): 12.3 µM | TGI (U251 glioblastoma): 26.7 µM | GI50 (HS 578T breast): 13.4 µM | TGI (HS 578T breast): 30.7 µM | GI50 (MDA-MB-468 breast): 13.7 µM | TGI (MDA-MB-468 breast): 34.5 µM | GI50 (SK-MEL-5 melanoma): 13.6 µM | TGI (SK-MEL-5 melanoma): 28.1 µM | GI50 (SF-539 CNS): 17.5 µM | TGI (SF-539 CNS): 45.1 µM | GI50 (RPMI-8226 leukemia): 15.2 µM | TGI (RPMI-8226 leukemia): 29.1 µM | GI50 (HT29 colon): 10.5 µM | TGI (HT29 colon): 24.1 µM | GI50 (NCI/ADR-RES ovarian): 23.5 µM | TGI (NCI/ADR-RES ovarian): 74.7 µM | GI50 (SK-OV-3 ovarian): 24.8 µM | TGI (SK-OV-3 ovarian): 58.7 µM | GI50 (NCI-H226 lung): 22 µM | TGI (NCI-H226 lung): 78.1 µM
